Marks after values point to notes of the source that are not given here. *1 amine or outer side, *2 acyl side, *3 side chain or, on linkers, in order; H or OH if unused. Where a SMILES comes first, the peptide text is derived from it. Side-chain parts run from the residue outwards. [ ]: non-standard residue; d: D form. The star is where a group is joined. C18 diacid = O=C(O)CCCCCCCCCCCCCCCCC(=O)*; C16 diacid = O=C(O)CCCCCCCCCCCCCCC(=O)*; γGlu = O=C(O)[C@H](CCC(=O)[*:2])N[*:1]; εLys = N[C@@H](CCCCN[*:1])C(=O)[*:2]; AEEA = NCCOCCOCC(=O)O; Aib = CC(C)(N)C(=O)O
What was measured:
in vivo [1] = experiment: in vivo; parameters: species or system Göttingen minipigs; settings: female, Göttingen, minipig, iv
Protocol: The purpose of this method is to determine the half-life in vivo of the derivatives of the present invention after i.v. administration to minipigs, i.e. the prolongation of their time in the body and thereby their time of action. This is done in a pharmacokinetic (PK) study, where the terminal half-life of the derivative in question is determined. By terminal half-life is generally meant the period of time it takes to halve a certain plasma concentration, measured after the initial distribution phase.
Female Göttingen minipigs were obtained from Ellegaard Göttingen Minipigs (Dalmose, Denmark) approximately 7-14 months of age and weighing from approximately 16-35 kg were used in the studies. The minipigs were housed individually and fed restrictedly once daily with SDS minipig diet (Special Diets Services, Essex, UK).
After at 3 weeks of acclimatisation two permanent central venous catheters were implanted in vena cava caudalis in each animal. The animals were allowed 1 week recovery after the surgery, and were then used for repeated pharmacokinetic studies with a suitable wash-out period between successive derivative dosing.
The animals were fasted for approximately 18 hours before dosing and from 0 to 4 hours after dosing but had ad libitum access to water during the whole period.
The sodium salts of compounds of Examples 1 were prepared using method SX_A under General Methods for preparation of the compounds of the invention. The resulting sodium salts were dissolved to a concentration of 50-300 nmol/mL in a buffer containing 0.007% polysorbate 20, 50 mM sodium phosphate, 70 mM sodium chloride, pH 7.4. Intravenous injections (the volume corresponding to usually 1-20 nmol/kg, for example 0.02-0.05 mL/kg) of the compounds were given through one catheter, and blood was sampled at predefined time points for up to 21 days post dosing (preferably through the other catheter). Blood samples (for example 0.8 mL) were collected in 8 mM EDTA buffer and then centrifuged at 4° C. and 1942 g for 10 minutes.
Plasma was pipetted into Micronic tubes on dry ice and kept at −20° C. until analysed for plasma concentration of the compounds using ELISA, or a similar antibody-based assay, or LCMS. Individual plasma concentration-time profiles were analysed by a non-compartmental model in Phoenix WinNonLin ver. 6.4. (Pharsight Inc., Mountain View, CA, USA), and the resulting terminal half-lives (harmonic mean) determined.
The terminal half-lives and/or the observed terminal half-lives, measured as described herein in General Methods for Measuring Terminal Half-Life in Minipigs are shown in Table 7. […] This provides evidence that conversion of prodrug to parent compound is occurring in vivo. The terminal half-life of the prodrug may be faster or slower than the corresponding parent compound due to the contribution of conversion on the terminal half-life of the prodrug.

in vivo [2] = experiment: in vivo; parameters: species or system beagle dogs; settings: dog, po, 300 mg; for Tmax / half-life: male, beagle
Protocol: The purpose of this method is to determine the terminal half-life and plasma exposure in vivo of the compounds of the present invention after p.o. administration to beagle dogs, i.e. the terminal half-life and concentration of test substance that reaches circulation with time. This is done in a pharmacokinetic (PK) study, where these parameters of the compound in question are determined. By terminal half-life is generally meant the period of time it takes to halve a certain plasma concentration, measured after the initial distribution phase.
Tablet compositions comprising the test compounds obtained from Example 1 and SNAC (sodium N-(8-(2-hydroxybenzoyl)amino)caprylate) were prepared according to methods known to the person skilled in the art by mixing test substance with roller compacted SNAC and magnesium stearate as e.g. described in WO 2019/149880. Each tablet was comprised of 7.7 mg magnesium stearate, 2-4 mg of each compound tested, and 300 mg SNAC.
Male beagle dogs, 1-7 years of age and weighing 9-17 kg during the study period, were included in the study. The dogs were dosed in a fasting state. The dogs were group housed in pens (12 hours light: 12 hours dark), and fed individually and restrictedly once daily with Royal Canin Medium Adult dog food (Royal Canin Products, China Branch, or Brogaarden A/S, Denmark). The dogs were used for repeated PK studies with a suitable wash-out period between successive dosing. An appropriate acclimatisation period was given prior to initiation of the first PK study. All handling, dosing, and blood sampling of the animals were performed by trained and skilled staff. Before the studies, the dogs were fasted overnight and from 0 to 4 hours after dosing. The dogs were restricted to water 1 hour before dosing until 4 hours after dosing, but otherwise had adlibitum access to water during the whole period.
The compositions were administered by a single oral dosing to the dogs in groups of 6-8 dogs. The tablets were administered in the following manner: 10 min prior to tablet administration, the dogs may be dosed subcutaneously with approximately 3 nmol/kg of SEQ ID NO.: 7 ([…]), then tablets were placed in the back of the mouth of the dog to prevent chewing. The mouth was then closed, and 10 mL of tap water was given by syringe or gavage to facilitate swallowing of the tablet.
One blood sample was drawn before dosing, and additional samples were drawn at predefined time points after dosing, such as for up to 600 hours, to adequately cover the full plasma concentration-time absorption profile of the test substance. For each blood sample time point, approximately 0.8 mL of whole blood was collected in a 1.5 mL EDTA-coated tube, which was gently turned to mix the sample with EDTA. Blood samples were collected in EDTA buffer (8 mM) and then centrifuged at 4° C. and 2000 g for 10 minutes. Plasma was pipetted into Micronic tubes on dry ice, and kept at −20° C. or lower until analysis. Blood samples were taken as appropriate, for example from a venflon in the cephalic vein in the front leg for the first 2 hours and then with syringe from the jugular vein for the rest of the time points. The first few drops were allowed to drain from the venflon to avoid heparin saline from the venflon in the sample. All blood samples were collected into test tubes containing EDTA for stabilisation and kept on ice until centrifugation. Plasma was separated from whole blood by centrifugation and the plasma was stored at −20° C. or lower until analysis.
The plasma was analysed for test substance using LC-MS (Liquid Chromatography-Mass Spectrometry) as known to the person skilled in the art. […]

Compound | half-life (in vivo [1]) | AUC/Dose (in vivo [2]) | Cmax/Dose (in vivo [2]) | Tmax (in vivo [2]) | half-life (in vivo [2])
CC[C@H](C)[C@H](NC(=O)[C@H](Cc1ccccc1)NC(=O)[C@H](CCC(=O)O)NC(=O)[C@H](CCCNC(=N)N)NC(=O)[C@H](C)NC(=O)[C@H](C)NC(=O)[C@H](CCC(N)=O)NC(=O)[C@H](CCCCNC(=O)[C@@H](N)CCCCNC(=O)[C@@H](N)CCCCNC(=O)CC[C@H](NC(=O)CCCCCCCCCCCCCCCCC(=O)O)C(=O)O)NC(=O)[C@H](CCC(=O)O)NC(=O)[C@H](CC(C)C)NC(=O)[C@H](CC(C)C)NC(=O)[C@@H](NC(=O)[C@H](CO)NC(=O)[C@H](Cc1ccc(O)cc1)NC(=O)[C@H](CC(=O)O)NC(=O)[C@H](CO)NC(=O)[C@@H](NC(=O)[C@H](Cc1ccccc1)NC(=O)[C@@H](NC(=O)CNC(=O)[C@H](CCC(=O)O)NC(=O)C(C)(C)NC(=O)[C@@H](N)Cc1ccc(O)cc1)[C@@H](C)O)[C@@H](C)O)[C@@H](C)CC)C(=O)N[C@@H](CCC(=O)O)C(=O)N[C@@H](Cc1c[nH]c2ccccc12)C(=O)N[C@@H](CC(C)C)C(=O)N[C@@H](CC(C)C)C(=O)N[C@@H](C)C(=O)NCC(=O)NCC(=O)N1CCC[C@H]1C(=O)N[C@@H](CO)C(=O)N[C@@H](CO)C(=O)NCC(=O)N[C@@H](C)C(=O)N1CCC[C@H]1C(=O)N1CCC[C@H]1C(=O)N1CCC[C@H]1C(=O)N[C@@H](CO)C(=O)O [Parent compound 4] (H-Y[Aib]EGTFTSDYSILLEK([εLys-εLys-γGlu-C18 diacid])QAAREFIEWLLAGGPSSGAPPPS-OH) | 106 h | 17.9* kg*h/L | 0.35* kg/L |  | 
H-K([γGlu-C16 diacid])VY[Aib]EGTFTSDYSILLEEQAAREFIEWLLAGGPSK([AEEA-AEEA-γGlu-C16 diacid])GAPPPS-OH [Non-converting compound 1] | 170 h | 20.1 kg·h/L | 0.21 kg/L | 1.5 h | 137 h
CC[C@H](C)[C@H](NC(=O)[C@H](Cc1ccccc1)NC(=O)[C@H](CCC(=O)O)NC(=O)[C@H](CCCNC(=N)N)NC(=O)[C@H](C)NC(=O)[C@H](C)NC(=O)[C@H](CCC(N)=O)NC(=O)[C@H](CCC(=O)O)NC(=O)[C@H](CCC(=O)O)NC(=O)[C@H](CC(C)C)NC(=O)[C@H](CC(C)C)NC(=O)[C@@H](NC(=O)[C@H](CO)NC(=O)[C@H](Cc1ccc(O)cc1)NC(=O)[C@H](CC(=O)O)NC(=O)[C@H](CO)NC(=O)[C@@H](NC(=O)[C@H](Cc1ccccc1)NC(=O)[C@@H](NC(=O)CNC(=O)[C@H](CCC(=O)O)NC(=O)C(C)(C)NC(=O)[C@@H](N)Cc1ccc(O)cc1)[C@@H](C)O)[C@@H](C)O)[C@@H](C)CC)C(=O)N[C@@H](CCC(=O)O)C(=O)N[C@@H](Cc1c[nH]c2ccccc12)C(=O)N[C@@H](CC(C)C)C(=O)N[C@@H](CC(C)C)C(=O)N[C@@H](C)C(=O)NCC(=O)NCC(=O)N1CCC[C@H]1C(=O)N[C@@H](CO)C(=O)N[C@@H](CCCCNC(=O)COCCOCCNC(=O)COCCOCCNC(=O)CC[C@H](NC(=O)CCCCCCCCCCCCCCC(=O)O)C(=O)O)C(=O)NCC(=O)N[C@@H](C)C(=O)N1CCC[C@H]1C(=O)N1CCC[C@H]1C(=O)N1CCC[C@H]1C(=O)N[C@@H](CO)C(=O)O [Parent compound 1] (H-Y[Aib]EGTFTSDYSILLEEQAAREFIEWLLAGGPSK([AEEA-AEEA-γGlu-C16 diacid])GAPPPS-OH) | 121 h | 60.7 kg·h/L | 0.67 kg/L | 1.5 h | 104 h

— patent US11840560B2, “Prodrugs and uses thereof” (Novo Nordisk A/S, priority 2022, dated 2023)
